Laboratory results as given in US9586928B2 (The Scripps Research Institute, priority 2011, dated 2017).

Assays:
Type in all cases: cell-based
Conditions in all cases: 10 μM
[1] = biological target: T1, RORα (Homo sapiens, UniProt P35398); assay: Gal4-RORα LBD / UAS luciferase cotransfection assay
T1 construct: expressed in transfected cells; host or cells: HEK293T
T1 sequence (P35398 272-510 limits assumed): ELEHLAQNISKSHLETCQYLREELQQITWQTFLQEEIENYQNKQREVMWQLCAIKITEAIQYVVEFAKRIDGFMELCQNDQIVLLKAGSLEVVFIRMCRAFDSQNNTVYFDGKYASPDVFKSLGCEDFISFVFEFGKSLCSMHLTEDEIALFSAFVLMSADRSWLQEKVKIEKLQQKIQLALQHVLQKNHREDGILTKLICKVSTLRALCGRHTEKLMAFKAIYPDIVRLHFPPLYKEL

[2] = biological target: T2, RORγ (Homo sapiens, UniProt P51449); assay: Gal4-RORγ LBD / UAS luciferase cotransfection assay
T2 construct: expressed in transfected cells; host or cells: HEK293T
T2 sequence (P51449 269-508 limits assumed): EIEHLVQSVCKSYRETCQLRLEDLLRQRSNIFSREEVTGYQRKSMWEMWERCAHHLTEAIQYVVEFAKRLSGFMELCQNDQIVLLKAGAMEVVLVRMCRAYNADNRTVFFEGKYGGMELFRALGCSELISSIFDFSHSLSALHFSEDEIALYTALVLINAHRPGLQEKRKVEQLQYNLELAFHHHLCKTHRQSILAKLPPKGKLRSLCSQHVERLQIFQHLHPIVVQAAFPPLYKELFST

[3] = test system: VP16; assay: Gal4 DBD-VP16 / UAS luciferase control assay
Experimental: (§1) The cells were treated with either DMSO or various compounds as indicated four hours after replating. Following additional 20 hour incubation, luciferase levels were assayed by one-step addition of 20 μL BriteLite (Perkin Elmer) and read using an Envision multilabel plate reader (Perkin Elmer).

[4] = biological target: T3, LXR (Homo sapiens, UniProt Q13133); assay: Gal4-LXRα / UAS luciferase cotransfection assay
T3 sequence (Q13133 209-447 limits assumed): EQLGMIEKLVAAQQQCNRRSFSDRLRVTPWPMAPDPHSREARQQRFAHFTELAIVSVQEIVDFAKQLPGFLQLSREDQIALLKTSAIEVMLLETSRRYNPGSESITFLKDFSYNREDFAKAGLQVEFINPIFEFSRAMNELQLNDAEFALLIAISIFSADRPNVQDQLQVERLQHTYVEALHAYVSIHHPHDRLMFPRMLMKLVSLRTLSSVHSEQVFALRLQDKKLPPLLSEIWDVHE
Experimental: as §1
Cotransfection assays were performed as previously described in HEK293 cells (Gal4 cotransfection assay or IL-17 luciferase reporter)[8]. HEK293 and the mouse lymphoma EL4 (ATCC) cells were maintained in DMEM supplemented with 10% FBS plus antibiotics (penicillin and streptomycin; Invitrogen).

Compound	RORα repression, fold change over DMSO [1] [fold change over DMSO]	RORγ repression, fold change over DMSO [2] [fold change over DMSO]	VP16 repression, fold change over DMSO [3] [fold change over DMSO]	LXR activation, fold change over DMSO [4] [fold change over DMSO]
O=C(C1CCCO1)N1CCN(Cc2ccc(-c3ccc(C(O)(C(F)(F)F)C(F)(F)F)cc3)cc2)CC1 (stereo not shown) [Compound 16, (4-((4′-(1,1,1,3,3,3-Hexafluoro-2-hydroxypropan-2-yl)-[1,1′-biphenyl]-4-yl)methyl)piperazin-1-yl)(tetrahydrofuran-2-yl)methanone]	0.8	0.6	0.6	1.4
OC(c1ccc(-c2ccc(CN3CCN(Cc4cccs4)CC3)cc2)cc1)(C(F)(F)F)C(F)(F)F [Compound 19, 1,1,1,3,3,3-Hexafluoro-2-(4′-((4-(thiophen-2-ylmethyl)piperazin-1-yl)methyl)-[1,1′-biphenyl]-4-yl)propan-2-ol]	0.75	0.5	0.4	1.5
OC(c1ccc(-c2ccc(CN3CCN(Cc4cc5cc(F)ccc5[nH]4)CC3)cc2)cc1)(C(F)(F)F)C(F)(F)F [Compound 20, 1,1,1,3,3,3-Hexafluoro-2-(4′-((4-((5-fluoro-1H-indol-2-yl)methyl)piperazin-1-yl)methyl)-[1,1′-biphenyl]-4-yl)propan-2-ol]	0.1	0.05	0.1	2.5
OC(c1ccc(-c2ccc(CN3CCN(CC4COc5ccccc5O4)CC3)cc2)cc1)(C(F)(F)F)C(F)(F)F (stereo not shown) [Compound 21, 2-(4′-((4-((2,3-Dihydrobenzo[b][1,4]dioxin-2-yl)methyl)piperazin-1-yl)methyl)-[1,1′-biphenyl]-4-yl)-1,1,1,3,3,3-hexafluoropropan-2-ol]	0.45	0.35	0.35	0.7
CCCNC(=O)N1CCN(Cc2ccc(-c3ccc(C(O)(C(F)(F)F)C(F)(F)F)cc3)cc2)CC1 [Compound 22, 4-((4′-(1,1,1,3,3,3-Hexafluoro-2-hydroxypropan-2-yl)-[1,1′-biphenyl]-4-yl)methyl)-N-propylpiperazine-1-carboxamide]	0.5	0.4	0.4	1.8
O=C(Nc1ccccc1)N1CCN(Cc2ccc(-c3ccc(C(O)(C(F)(F)F)C(F)(F)F)cc3)cc2)CC1 [Compound 23, 4-((4′-(1,1,1,3,3,3-Hexafluoro-2-hydroxypropan-2-yl)-[1,1′-biphenyl]-4-yl)methyl)-N-phenylpiperazine-1-carboxamide]	0.9	0.5	0.55	2
O=C(NCc1ccccc1)N1CCN(Cc2ccc(-c3ccc(C(O)(C(F)(F)F)C(F)(F)F)cc3)cc2)CC1 [Compound 24, N-Benzyl-4-((4′-(1,1,1,3,3,3-hexafluoro-2-hydroxypropan-2-yl)-[1,1′-biphenyl]-4-yl)methyl)piperazine-1-carboxamide]	0.5	0.25	0.25	1.3
CCC(=O)N1CCN(Cc2ccc(-c3ccc(C(O)(C(F)(F)F)C(F)(F)F)cc3)cc2)CC1 [Compound 25, 1-(4-((4′-(1,1,1,3,3,3-Hexafluoro-2-hydroxypropan-2-yl)-[1,1′-biphenyl]-4-yl)methyl)piperazin-1-yl)propan-1-one]	0.7	0.45	0.5	1
O=C(c1ccccc1)N1CCN(Cc2ccc(-c3ccc(C(O)(C(F)(F)F)C(F)(F)F)cc3)cc2)CC1 [Compound 26, (4-((4′-(1,1,1,3,3,3-Hexafluoro-2-hydroxypropan-2-yl)-[1,1′-biphenyl]-4-yl)methyl)piperazin-1-yl)(phenyl)methanone]	0.9	0.8	0.7	2
O=C(Cc1ccccc1)N1CCN(Cc2ccc(-c3ccc(C(O)(C(F)(F)F)C(F)(F)F)cc3)cc2)CC1 [Compound 27, 1-(4-((4′-(1,1,1,3,3,3-Hexafluoro-2-hydroxypropan-2-yl)-[1,1′-biphenyl]-4-yl)methyl)piperazin-1-yl)-2-phenylethanone]	0.5	0.25	0.3	0.8
CS(=O)(=O)N1CCN(Cc2ccc(-c3ccc(C(O)(C(F)(F)F)C(F)(F)F)cc3)cc2)CC1 [Compound 28, 1,1,1,3,3,3-Hexafluoro-2-(4′-((4-(methylsulfonyl)piperazin-1-yl)methyl)-[1,1′-biphenyl]-4-yl)propan-2-ol]	1.1	0.5	0.75	1.5
O=S(=O)(c1ccccc1)N1CCN(Cc2ccc(-c3ccc(C(O)(C(F)(F)F)C(F)(F)F)cc3)cc2)CC1 [Compound 29, 1,1,1,3,3,3-Hexafluoro-2-(4′-((4-(phenylsulfonyl)piperazin-1-yl)methyl)-[1,1′-biphenyl]-4-yl)propan-2-ol]	1	0.8	0.8	1.8
O=S(=O)(Cc1ccccc1)N1CCN(Cc2ccc(-c3ccc(C(O)(C(F)(F)F)C(F)(F)F)cc3)cc2)CC1 [Compound 30, 2-(4′-((4-(Benzylsulfonyl)piperazin-1-yl)methyl)-[1,1′-biphenyl]-4-yl)-1,1,1,3,3,3-hexafluoropropan-2-ol]	1	0.75	0.75	2
OC(c1ccc(-c2ccc(CN3CCN(Cc4ccnc(Br)c4)CC3)cc2)cc1)(C(F)(F)F)C(F)(F)F [Compound 40, 2-(4′-((4-((2-Bromopyridin-4-yl)methyl)piperazin-1-yl)methyl)-[1,1′-biphenyl]-4-yl)-1,1,1,3,3,3-hexafluoropropan-2-ol]	0.1	0.05	0.05	1
OC(c1ccc(-c2ccc(CN3CCN(CCc4ccncc4)CC3)cc2)cc1)(C(F)(F)F)C(F)(F)F [Compound 41, 1,1,1,3,3,3-Hexafluoro-2-(4′-((4-(2-(pyridin-4-yl)ethyl)piperazin-1-yl)methyl)-[1,1′-biphenyl]-4-yl)propan-2-ol]	0.5	0.3	0.3	1
OC(c1ccc(-c2ccc(CN3CCN(Cc4nc5ccccc5s4)CC3)cc2)cc1)(C(F)(F)F)C(F)(F)F [Compound 42, 2-(4′-((4-(Benzo[d]thiazol-2-ylmethyl)piperazin-1-yl)methyl)-[1,1′-biphenyl]-4-yl)-1,1,1,3,3,3-hexafluoropropan-2-ol]	0.4	0.2	0.1	1
